Test results from paper PMC7417534, “Cytochrome P450 inhibition potential and initial genotoxic evaluation of 14-O-[(4,6-diaminopyrimidine-2-yl)thioacetyl] mutilin” (Scientific Reports, 2020).
Where two headings read alike, the source gives them in different places.

What was measured:
S. typhimurium TA97 = test: Ames test, strain TA97; type: cell-based, Salmonella typhimurium; settings: − S9; positive control, 10 μg/plate
Excerpt: (§1) S. typhimurium strains TA97, TA98, TA100, TA102 and TA1535 were stored and maintained as provided in the standard protocol. Each of the strains was checked for their genetic integrity prior to the experiment, and tested for biotin dependence, histidine dependence, biotin and histidine dependence, rfa marker (crystal violet) and presence of the plasmid pKM101 (ampicillin resistance) or pAQ1 (tetracycline resistance). Different strains were used to identify different types of mutations.
(§2) The test was carried out at five different concentrations of DPTM. […] Then 1 mL solution was diluted with distilled water by two fold. […] The negative control used in this experiment was 1 mL DMSO which was directly incorporated into 9 mL melted top agar.
(§3) The Ames test of DPTM was conducted as described in the literatures[42],[43] with some modifications. Briefly, 1 mL of strain was inoculated into 5 mL of nutrient broth, followed by incubating overnight at 37 °C. The mixture comprised respective strains, drug, negative and positive controls with the S9 for testing in the presence of metabolic activation system. For testing without S9, 1 × phosphate buffer saline (PBS, pH 7.4) replaced the S9 mix. The obtained mixtures were added into the tube, mixed well and incubated at 37 °C for 20 min. Then, the top agar was melted and 2 mL of this melted top agar was added to each tube and gently mixed. […] The results were expressed as the number of revertant colonies per plate. The experiments were performed in triplicate.

CYP3A4 = settings: cited from earlier work
S. typhimurium TA100 = settings: − S9; positive control, 5 μg/plate
Excerpt: as §1, §2, §3

S. typhimurium TA1535 = settings: − S9; positive control, 5 μg/plate
Excerpt: as §1, §2, §3

Structure (SMILES): Nc1ccc([N+](=O)[O-])cc1N [4-nitro-o-phenylenediamine, reference compound]
- revertant colonies per plate, TA97 (S. typhimurium TA97): 803 ± 37 CFU

Structure (SMILES): C=C[C@]1(C)C[C@@H](OC(=O)CSc2nc3ccc(N)cc3[nH]2)[C@]2(C)[C@H](C)CC[C@]3(CCC(=O)[C@H]32)[C@@H](C)[C@@H]1O [14-O-((5-Amino-benzimidazole-2-yl)thioacetyl) mutilin]
- IC50 (CYP3A4; read-out: IC50 value, CYP3A4 inhibition): 1690 nM

Structure (SMILES): C=C[C@]1(C)C[C@@H](OC(=O)CS[C@@H]2CC[C@@H](N)C[C@H]2O)[C@]2(C)[C@H](C)CC[C@]3(CCC(=O)[C@H]32)[C@@H](C)[C@@H]1O [Lefamulin]
- IC50 (CYP3A4; read-out: IC50, inhibition for CYP3A4): < 5000 nM

Structure (SMILES): [N-]=[N+]=[N-].[Na+] [sodium azide, reference compound]
- revertant colonies per plate, TA100 (S. typhimurium TA100): 984 ± 59 CFU
- revertant colonies per plate, TA1535 (S. typhimurium TA1535): 774 ± 20 CFU
